Source: publication PMC10970486 (Bioconjugate chemistry, 2024)

Biological target: MelBSt (melibiose permease) (Salmonella enterica, UniProt P30878)
Assay: displacement of D2G, Trp to dansyl FRET
Format: binding
Conditions: excess melibiose added after D2G; extract in DDM, TMG-A13 or TMG-P10,8

MelBSt (melibiose permease), sequence (P30878 whole entry): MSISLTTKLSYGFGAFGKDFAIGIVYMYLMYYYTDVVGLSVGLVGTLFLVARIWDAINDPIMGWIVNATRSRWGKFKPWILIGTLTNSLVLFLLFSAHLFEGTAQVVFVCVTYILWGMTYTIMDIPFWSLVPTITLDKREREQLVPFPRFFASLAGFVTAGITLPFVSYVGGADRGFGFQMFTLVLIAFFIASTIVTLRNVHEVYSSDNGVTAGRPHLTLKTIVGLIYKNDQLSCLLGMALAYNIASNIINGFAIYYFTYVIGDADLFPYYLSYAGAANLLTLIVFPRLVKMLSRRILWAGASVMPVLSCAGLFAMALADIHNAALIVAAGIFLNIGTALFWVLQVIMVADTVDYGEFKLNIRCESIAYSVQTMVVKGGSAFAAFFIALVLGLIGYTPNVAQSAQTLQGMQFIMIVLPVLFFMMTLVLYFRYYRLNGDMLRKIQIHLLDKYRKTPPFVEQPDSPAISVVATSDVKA

## OC[C@H]1O[C@H](OC[C@H]2OC(O)[C@H](O)[C@@H](O)[C@@H]2O)[C@H](O)[C@@H](O)[C@H]1O (stereo partly shown) [melibiose]
  displacement of D2G, Trp to dansyl FRET: excess melibiose replaces the dansyl ligand with the non-fluorescent substrate in the active site
